From patent US20230398130A1, “METHODS AND COMPOSITIONS FOR DIFFERENTIATING STEM CELLS” (Massachusetts Institute of Technology, priority 2020, published 2023)

What was measured:
ISC-enriched organoids [1] = experiment: Primary screen, 384-well 2.5-D organoid differentiation (ENR+CD, 6 days): carbachol-induced lysozyme secretion (LYZ.S); type: cell-based, murine; details: primary screen; for Dose.FC.LYZ.S: FC vs plate median; for Z.LYZ.S: standard z score
Description: (§1) High-throughput screening.

ISC-enriched organoids [2] = experiment: Primary screen, 384-well 2.5-D organoid differentiation (ENR+CD, 6 days, Target Selective Inhibitor Library, vs whole-plate median): ATP (CellTiter-Glo 3D, CTG); details: primary screen; for Dose.FC.CTG: FC vs plate median; for SSMD.CTG: strictly standardized mean difference
ISC-enriched organoids [3] = experiment: Primary screen, 384-well 2.5-D organoid differentiation (ENR+CD, 6 days): basal lysozyme secretion (LYZ.NS); type: cell-based, murine; details: primary screen; for Dose.FC.LYZ.NS: FC vs plate median; for Z.LYZ.NS: standard z score; for SSMD.LYZ.NS: strictly standardized mean difference
Description: as §1

[4] = 1st of the 4 dose lines of the treatment (dose not given)
[5] = 2nd of the 4 dose lines of the treatment (dose not given)
[6] = 3rd of the 4 dose lines of the treatment (dose not given)
[7] = 4th of the 4 dose lines of the treatment (dose not given)
[8] = Dose 10.00 uM, standard z score
[9] = dose 0.08 uM, standard z score of FC
[10] = dose 0.40 uM, standard z score of FC
[11] = dose 2.00 uM, standard z score of FC
[12] = dose 10.00 uM, standard z score of FC

Row | Compound | Dose.FC.CTG (ISC-enriched organoids [2]; Dose 0.08 uM) [log 2 fold change] | Z.CTG (ISC-enriched organoids [2]; Dose 0.08 uM, standard z score) | Dose.FC.CTG (ISC-enriched organoids [2]; Dose 0.40 uM) [log 2 fold change] | Z.CTG (ISC-enriched organoids [2]; Dose 0.40 uM, standard z score) | Dose.FC.CTG (ISC-enriched organoids [2]; Dose 2.00 uM) [log 2 fold change] | Z.CTG (ISC-enriched organoids [2]; Dose 2.00 uM, standard z score) | Dose.FC.CTG (ISC-enriched organoids [2]; Dose 10.00 uM) [log 2 fold change] | Z.CTG (ISC-enriched organoids [2]; [8]) | SSMD.CTG (ISC-enriched organoids [2]; [4]) | SSMD.CTG (ISC-enriched organoids [2]; [5]) | SSMD.CTG (ISC-enriched organoids [2]; [6]) | SSMD.CTG (ISC-enriched organoids [2]; [7]) | Dose.FC.LYZ.S (ISC-enriched organoids [1]; dose 0.08 uM, ENR+CD 6 days) [log 2 fold change] | Dose.FC.LYZ.S (ISC-enriched organoids [1]; dose 0.40 uM, ENR+CD 6 days) [log 2 fold change] | Dose.FC.LYZ.S (ISC-enriched organoids [1]; dose 2.00 uM, ENR+CD 6 days) [log 2 fold change] | Dose.FC.LYZ.S (ISC-enriched organoids [1]; dose 10.00 uM, ENR+CD 6 days) [log 2 fold change] | Z.CTG (ISC-enriched organoids [2]; [9]) | Z.CTG (ISC-enriched organoids [2]; [10]) | Z.CTG (ISC-enriched organoids [2]; [11]) | Z.CTG (ISC-enriched organoids [2]; [12]) | also measured
1 | O=c1cc(-c2cccc3c2Sc2ccccc2S3)oc(N2CCOCC2)c1 [KU-55933 (ATM Kinase Inhibitor)] | 0.524 | 1.251 | 0.477 | 1.140 | 0.551 | 1.317 | 0.541 | 1.293 | 1.626 | 1.743 | 1.554 | 1.744 | – | – | – | – | – | – | – | – | Dose.FC.LYZ.S (ISC-enriched organoids [1]; Dose 0.08 uM): 0.168 log 2 fold change; Dose.FC.LYZ.S (ISC-enriched organoids [1]; Dose 0.40 uM): 0.200 log 2 fold change; Dose.FC.LYZ.S (ISC-enriched organoids [1]; Dose 2.00 uM): 0.161 log 2 fold change; Dose.FC.LYZ.S (ISC-enriched organoids [1]; Dose 10.00 uM): 0.076 log 2 fold change; Z.LYZ.S (ISC-enriched organoids [1]; [4]): 1.088; Z.LYZ.S (ISC-enriched organoids [1]; [5]): 1.291; Z.LYZ.S (ISC-enriched organoids [1]; [6]): 1.043; Z.LYZ.S (ISC-enriched organoids [1]; [7]): 0.494; SSMD.LYZ.S (ISC-enriched organoids [1]; strictly standardized mean difference, 1st of the 4 dose lines of the treatment (dose not given)): 1.113; SSMD.LYZ.S (ISC-enriched organoids [1]; strictly standardized mean difference, 2nd of the 4 dose lines of the treatment (dose not given)): 0.994; SSMD.LYZ.S (ISC-enriched organoids [1]; strictly standardized mean difference, 3rd of the 4 dose lines of the treatment (dose not given)): 1.246; SSMD.LYZ.S (ISC-enriched organoids [1]; strictly standardized mean difference, 4th of the 4 dose lines of the treatment (dose not given)): 0.400
2 | COc1cc(CCc2cc(NC(=O)c3ccc(N4CC(C)NC(C)C4)cc3)n[nH]2)cc(OC)c1 (centres unmarked) [AZD4547] | – | – | – | – | – | – | – | – | – | – | – | – | 0.157 | 0.083 | 0.074 | −0.049 | 0.382 | 0.241 | −0.024 | −0.147 | Dose.FC.CTG (ISC-enriched organoids [2]; dose 0.08 uM, ENR+CD 6 days): 0.160 log 2 fold change; Dose.FC.CTG (ISC-enriched organoids [2]; dose 0.40 uM, ENR+CD 6 days): 0.101 log 2 fold change; Dose.FC.CTG (ISC-enriched organoids [2]; dose 2.00 uM, ENR+CD 6 days): −0.010 log 2 fold change; Dose.FC.CTG (ISC-enriched organoids [2]; dose 10.00 uM, ENR+CD 6 days): −0.062 log 2 fold change
3 | CC(C)C[C@H](NC(=O)[C@H](Cc1ccccc1)NC(=O)c1cnccn1)B(O)O [Bortezomib (PS-341)] | – | – | – | – | – | – | – | – | – | – | – | – | −0.239 | −0.173 | −0.249 | −0.238 | −4.547 | −5.127 | −2.185 | −3.246 | Dose.FC.CTG (ISC-enriched organoids [2]; dose 0.08 uM, ENR+CD 6 days): −1.904 log 2 fold change; Dose.FC.CTG (ISC-enriched organoids [2]; dose 0.40 uM, ENR+CD 6 days): −2.146 log 2 fold change; Dose.FC.CTG (ISC-enriched organoids [2]; dose 2.00 uM, ENR+CD 6 days): −0.915 log 2 fold change; Dose.FC.CTG (ISC-enriched organoids [2]; dose 10.00 uM, ENR+CD 6 days): −1.359 log 2 fold change
4 | CC(C)(C#N)c1cc(Cn2cncn2)cc(C(C)(C)C#N)c1 [Anastrozole] | – | – | – | – | – | – | – | – | – | – | – | – | – | – | – | – | −0.279 | 0.057 | −0.139 | −1.191 | SSMD.LYZ.S (ISC-enriched organoids [1]; strictly standardized mean difference of replicates, four lines per treatment = four doses (dose not given), column head inferred): 0.304
5 | Cc1ccc(NC(=O)c2ccc(CN3CCN(C)CC3)cc2)cc1Nc1nccc(-c2cccnc2)n1 [Imatinib (STI571)] | −0.150 | −0.357 | 0.079 | 0.188 | 0.056 | 0.135 | −0.034 | −0.082 | −0.258 | 0.254 | 0.194 | −0.097 | – | – | – | – | – | – | – | – | Dose.FC.LYZ.NS (ISC-enriched organoids [3]; Dose 0.08 uM): 0.033 log 2 fold change; Z.LYZ.NS (ISC-enriched organoids [3]; Dose 0.08 uM): 0.284; Dose.FC.LYZ.NS (ISC-enriched organoids [3]; Dose 0.40 uM): 0.012 log 2 fold change; Z.LYZ.NS (ISC-enriched organoids [3]; Dose 0.40 uM): 0.104; Dose.FC.LYZ.NS (ISC-enriched organoids [3]; Dose 2.00 uM): 0.025 log 2 fold change; Z.LYZ.NS (ISC-enriched organoids [3]; Dose 2.00 uM): 0.217; Dose.FC.LYZ.NS (ISC-enriched organoids [3]; Dose 10.00 uM): −0.038 log 2 fold change; Z.LYZ.NS (ISC-enriched organoids [3]; Dose 10.00 uM): −0.333; SSMD.LYZ.NS (ISC-enriched organoids [3]; [4]): 0.326; SSMD.LYZ.NS (ISC-enriched organoids [3]; [5]): 0.108; SSMD.LYZ.NS (ISC-enriched organoids [3]; [6]): 0.152; SSMD.LYZ.NS (ISC-enriched organoids [3]; [7]): −0.330
